Experimental findings from EP0791071B1, “ASSAY FOR PROLINE IMINOPEPTIDASE AND OTHER HYDROLYTIC ACTIVITIES” (LITMUS CONCEPTS, INC., priority 1994, dated 1996) are described below.

Like-named read-outs stand apart in the source and are kept apart here. Non-standard residues stand in square brackets, D forms with d. Residues, ends and D or L forms follow the SMILES beside them. *: point of attachment. Sta = CC(C)C[C@H](N)[C@@H](O)CC(=O)O; AMC = Cc1cc(=O)oc2cc(N*)ccc12; Isovaleryl = CC(C)CC(=O)*; Boc = CC(C)(C)OC(=O)*

Test [1] concerns Mobiluncus curtisii ATCC strain 35241 hydrolysis of L-prolyl-beta-naphthylamide (proline iminopeptidase activity). As to the kind of experiment: Enzyme inhibitors on hydrolysis of L-prolyl-beta-naphthylamide, PDMAC chromogen (Experiment VIII). It counts as biochemical. Particulars: PRO.NAM conjugate, 1.5 hours at room temperature, water control 2. The procedure: 150 µL cell suspension, 10 µL conjugate, (PRO.NAM), 10 µL inhibitor, and 30 µL buffer were added to test tubes, and the suspension incubated for 1.5 hours at room temperature. 80 µL of the suspension was removed from the incubation tubes and added to 80 µL of the chromogen solution in a second set of tubes and the color formation noted.

Test [2] has as its system Mobiluncus curtisii ATCC strain 35241 cell hydrolysis of Z-L-arg.L-arg.AFC. The test is described as follows: Enzyme inhibitors on cell hydrolysis of Z-ARG.ARG.AFC, PDMAC chromogen (Experiment X). The class given is biochemical. Also noted: key: 0: no red color formation; 0.25: faintest red color detectable visually; 0.5: distinct red color; red color between 1.0 and 2.0 in intensity; 2.0: darkest red color possible in test system. Particulars: Z-ARG.ARG.AFC as the conjugate, 1.5 hours at room temperature, water control 2. As for the experimental part:
(§1) 50 µL cell suspension, 5 µL conjugate, 10 µL inhibitor, and 35 µL buffer were added to test tubes, and the suspension incubated for 1.5 hours at room temperature. 90 µL of the incubated suspension was added to 90 µL of the chromogen solution and the color formation noted.

Test [3] relates to Mobiluncus curtisii ATCC strain 35241 cell hydrolysis of t-boc-L-val.L-leu.L-lys.7-amino-4-methyl coumarin. As to the kind of experiment: Enzyme inhibitors on cell hydrolysis of t-boc.VAL.LEU.LYS.7-AMC, PDMAC chromogen (Experiment X). The class given is biochemical. Also noted: key to TEST COLOR: -: no red color formation; +/-: possible red color formation; +: clearly visible red color formation; ++: extremely intense red color formation. As to conditions: for TEST COLOR: t-boc.VAL.LEU.LYS.7-AMC as the conjugate, 1.5 hours at room temperature, no inhibitor 2. The procedure:
as §1

Test [4] relates to Mobiluncus curtisii ATCC strain 35241 cell hydrolysis of the conjugate, L-prolyl-beta-naphthylamide. It counts as biochemical. Also noted: key: -: no red color formation; +/-: possible red color formation; +: clearly visible red color formation; ++: extremely intense red color formation. Particulars: PRO.NAM conjugate, 2 minutes incubation, read after 3 minutes, water control 2. The procedure:
30 µL cell suspension, 10 µL conjugate, PRO.NAM, and 10 µL salt solution or water were added to test tubes, and the suspension incubated for 2 minutes at room temperature. 20 µL of the suspension was removed from the incubation tubes and added to Fast Garnet GBC chromogenic indicator laminae. After 3 minutes, the Fast Garnet GBC indicator laminae were examined for a red color.

Test [5] relates to Mobiluncus curtisii ATCC strain 35241 hydrolysis of the conjugate, L-arginyl-beta-naphthylamide (ARG.NAM). It counts as biochemical. As to conditions: pH 8.0 Tris, 1 hour at room temperature, water control 2. The procedure: (§2) 20 µL cell suspension, 50 µL water, 10 µL salt solution, 10 µL buffer, and 5 µL conjugate, ARG.NAM, were added to test tubes, and the suspension incubated for 1 hour at room temperature. 100 µL of the PDMAC chromogen reagent was added, and red color formation after 5 minutes was noted.

Test [6] has as its system proline iminopeptidase activity in Mobiluncus curtsii ATCC strain 35241 cells. The test is described as follows: Diazonium dye indicator laminae in test devices with PRO.NAM lamina: color with Mobiluncus curtisii suspension (Experiment III). Particulars: dye indicator lamina and PRO.NAM lamina in test device; about 40 microliters cell suspension; 10 minutes at room temperature. The class given is biochemical, Mobiluncus curtisii ATCC strain 35241. As for the experimental part:
Chromogenic indicator laminae of Fast Garnet GBC, 15 mg; Fast Black K, 57 mg; Fast Dark Blue, Fast Bordeaux, Fast Violet, and Fast Red B, 21 mg prepared as described in P[…] and proline iminopeptidase-hydrolyzable conjugate, L-prolyl-beta-naphthylamide, (13 mg/ml) prepared as described in P[…] were manually assembled into test devices (P[…]). • 1. Tests of device performance with the reporter group, beta-naphthylamine. Approximately 40 microliters of 500 micromolar beta-naphthylamine solution was added to the manually assembled kits. After 10 minutes, color formation was noted. • 2. Test kit performance with proline iminopeptidase activity in Mobiluncus curtsii ATCC strain 35241 cells.
Approximately 40 microliters of the Mobiluncus curtisii ATCC strain 35241 suspension were added to each test kit. After 10 minutes at room temperature, the appearance of color was determined.

Test [7] deals with Mobiluncus curtisii ATCC strain 35241 hydrolysis of the conjugate, L-prolyl-beta-naphthylamide. The class given is biochemical. Also noted: key: 0: no red color formation; 0.25: faintest red color detectable visually; 0.5: distinct red color; red color between 1.0 and 2.0 in intensity; 2.0: darkest red color possible in test system. As to conditions: 10 µL of 100 mM metal salt, PRO.NAM conjugate. As for the experimental part:
(§3) 20 µL cell suspension, 40 µL water, 10 µL salt solution, and 10 µL conjugate solutions (PRO.NAM or ARG.NAM) were added to test tubes, and mixed thoroughly. Immediately thereafter, 20 µL aliquots were removed from each tube, and added directly to Fast Garnet GBC chromogenic indicator laminae. After 5 minutes at room temperature, the Fast Garnet GBC sheets were examined for the formation of a red color.

For test [8], the system named is Mobiluncus curtisii ATCC strain 35241 hydrolysis of the conjugate, L-arginyl-beta-naphthylamide. As to the kind of experiment: Manganese and zinc chlorides on hydrolysis of ARG.NAM at high and low pH, Fast Garnet GBC laminae (Experiment XIII). The class given is biochemical. Particulars: 10 µL of 100 mM metal salt. As for the experimental part: as §3
For test [9], the system named is Mobiluncus curtisii ATCC Strain 35241. As to the kind of experiment: Hydrolysis of conjugates by microbial cells, PDMAC chromogen in solution (Experiment IV). The class given is biochemical. As to conditions: preparation and pH not given. The procedure: 50 µL distilled water, 25 µL buffer, and 25 µL microbial suspension were mixed. 5 µL conjugate was added, and the mixture allowed to incubate for 10 minutes at room temperature. 100 µL PDMAC was added to each incubation, and the color score noted.

The subject of test [10] is Mobiluncus curtisii ATCC strain 35241 proline iminopeptidase activity. The test is described as follows: Inhibition of proline iminopeptidase activity by detergents, PRO.NAM conjugate, PDMAC chromogen (Experiment VII). The class given is biochemical. As for the experimental part:
To one set of four test tubes were added 20 µL cell suspension, 5 µL conjugate, and 65 µL distilled water. After 10 minutes incubation at room temperature, 10 µL detergent and 90 µL chromogen solution was added and the color formation noted. To a second set of four test tubes were added 20 µL cell suspension, 5 µL conjugate, and 65 µL detergent solution. After 10 minutes incubation of these components at room temperature, 10 µL water and 90 µL chromogen solution was added and the color formation noted.

Test [11] has as its system Mobiluncus curtisii ATCC strain 35241 hydrolysis of the conjugate, L-arginyl-beta-naphthylamide (ARG.NAM). It counts as biochemical. Also noted: key: -: no red color formation; +/-: possible red color formation; +: clearly visible red color formation; ++: extremely intense red color formation. As to conditions: metal salt 5 mM, pH 8.0 Tris, 1 hour at room temperature, water control 2. As for the experimental part: as §2

Test [12] shares this test system. It counts as biochemical. Also noted: key: 0: no red color formation; 0.25: faintest red color detectable visually; 0.5: distinct red color; red color between 1.0 and 2.0 in intensity; 2.0: darkest red color possible in test system. Particulars: metal salt 5 mM, pH 8.0 Tris, 1 hour at room temperature, water control 2. As for the experimental part: as §2

As to `O[C@H](CS)[C@H](O)CS` (racemic) [DTT, dithiothreitol], the “TEST COLOR” value in [1] (inhibitor 1 mM), in test [2] (CONCENTRATION (Mm) 1) and in test [3] (CONCENTRATION (Mm) 1) was 2 throughout.
Regarding `[Ca+2].[Cl-].[Cl-]` [CaCl2], the “TEST COLOR” value in test [4] (metal salt 20 mM) and in test [5] (metal salt 5 mM) was 2 in each case.
In the case of `O=C(O)CN(CCOCCOCCN(CC(=O)O)CC(=O)O)CC(=O)O` [EGTA, ethyleneglycol-bis-(beta-aminoethyl ether)-N,N,N',N'-tetraacetic acid], the “TEST COLOR” value in [1] (inhibitor 5 mM), in [2] (CONCENTRATION (Mm) 5) and in test [3] (CONCENTRATION (Mm) 5) was 2 throughout.
For the molecule `Cc1ccccc1N=Nc1ccc([N+]#N)c(C)c1` [Fast Garnet GBC], the “color formation with Mobiluncus Curtisii” value in test [6] is “red”.
In the case of `[Cl][Mn][Cl]` [MnCl2, manganese chloride], the “TEST COLOR” value in [4] (metal salt 20 mM) is reported as 2; in test [5] (metal salt 5 mM), 1. Moreover, the “COLOR SCORE 5 MINUTES” value in [7] (pH 5, without salt 1) is listed as 1; in [7] (pH 8, without salt 0.5), 0.5; in test [8] (pH 5, without salt 0), 0; in test [8] (pH 8, without salt 0.5), 0.
`CCN1C(=O)C=CC1=O` [NEM, N-ethylmaleimide]: the “TEST COLOR” value in test [1] (inhibitor 0.5 mM), in test [2] (CONCENTRATION (Mm) 2) and in [3] (CONCENTRATION (Mm) 2) was 2 throughout.
`O=C(O)c1cc[c]([Hg][Cl])cc1` [PCMB, para-chloromercuribenzoate]: the “TEST COLOR” value in test [1] (inhibitor 0.5 mM) is recorded as 2.
In the case of `O=S(=O)(F)Cc1ccccc1` [PMSF, phenyl methyl sulfonyl fluoride], the results for the “TEST COLOR” value in test [1] (inhibitor 2 mM), in test [2] (CONCENTRATION (Mm) 0.5) and in test [3] (CONCENTRATION (Mm) 0.5) were 2, 2 and 1, respectively. In addition, the inhibited activity entry in test [3] (hydrolysis of T-boc-VAL.LEU.LYS.AMC) is reported as “approximately 50%”.
Regarding `Cc1cc(=O)oc2cc(NC(=O)[C@H](CCCCN)NC(=O)[C@H](CC(C)C)NC(=O)[C@@H](NC(=O)OC(C)(C)C)C(C)C)ccc12` [T-boc.VAL. LEU.LYS.AMC, Tert-butyloxycarbonyl-L-valyl-L-leucyl.L-lysyl-7-amino-4-methyl coumarin] (Boc-Val-Leu-Lys-{AMC}), the “M. CURTISII PDMAC COLOR (PREP., pH)” value in test [9] was 2.
`Cc1ccc(S(=O)(=O)N[C@@H](CCCCN)C(=O)CCl)cc1` [TLCK, N-tosyl-L-lysine-chloromethyl ketone]: the “TEST COLOR” value came out at 0.5 in test [2] (CONCENTRATION (Mm) 0.5) and 0 in test [3] (CONCENTRATION (Mm) 0.5).
In the case of `Cc1ccc(S(=O)(=O)N[C@@H](Cc2ccccc2)C(=O)CCl)cc1` [TPCK, N-tosyl-L-phenylalanine chloromethyl ketone], the “TEST COLOR” value in test [1] (inhibitor 0.5 mM) is reported as 2; in test [2] (CONCENTRATION (Mm) 0.5) it was 0.5; in [3] (CONCENTRATION (Mm) 0.5), 0.
With `CC(C)CC(=O)N[C@H](C(=O)N[C@H](C(=O)N[C@@H](CC(C)C)[C@@H](O)CC(=O)N[C@@H](C)C(=O)N[C@@H](CC(C)C)[C@@H](O)CC(=O)O)C(C)C)C(C)C` [pepstatin] (Isovaleryl-VV[Sta]A[Sta]-OH), the “TEST COLOR” value in test [1] (inhibitor 0.5 mM), in test [2] (CONCENTRATION (Mm) 0.5) and in test [3] (CONCENTRATION (Mm) 0.5) was 2 each time.
`CCCCCCCCCCCCCCCCCCOS(=O)(=O)[O-].[Na+]` [sodium octadecyl sulfate]: the COLOR result in [10] (detergent (10 µL) added after the 10 minute incubation, with the chromogen) is “red”; in test [10] (detergent among first additions, present with cells and PRO.NAM during the 10 minute incubation, red = hydrolysis, yellow = none) it was “yellow”.
Consider CrCl2, for which the “TEST COLOR” value in test [4] (metal salt 20 mM) amounted to 2.
Still for that read-out and setting: next, MgCl2: 2.
With cupric chloride [CuCl2], the “TEST COLOR” value was 0 in test [4] (metal salt 5 mM), 1 in [5] (metal salt 1 mM) and 0 in [11].
Take mercuric chloride [HgCl2]: the “TEST COLOR” value in [4] (metal salt 1 mM) is reported as 0.
zinc chloride [ZnCl2]: the figures for the “TEST COLOR” value in test [4] (metal salt 20 mM), in test [5] (metal salt 1 mM) and in [12] were 2, 1 and 0.5, respectively. Moreover, the “COLOR SCORE 5 MINUTES” value in test [7] (pH 5, without salt 1) is on record as 1; in test [7] (pH 8, without salt 0.5), 0.5; in test [8] (pH 5, without salt 0), 0; in [8] (pH 8, without salt 0.5), 0.
